Reference: patent US8835410B2, “Treatment of eyelid dermatitis” (Bodor Laboratories, Inc., priority 2011, dated 2014)
“Also recorded” adds a separate entry of the source. Marks after values point to notes of the source that are not given here.

How the values were obtained:
[1] = tested on: Sprague-Dawley rats; experiment: Effect of steroid ointments on skin atrophy and thymus weight in rats; assay type: in vivo, rat; details: for PERCENT DECREASE IN SKIN THICKNESS / PERCENT DECREASE IN THYMUS WEIGHT: ointment on shaved dorsal skin, vs controls; for effect on thymus weight (in words) / skin atrophy (in words): topical ointment
Experimental: To investigate the effects of loteprednol etabonate (LE) on skin atrophy and thymus weight, the following experiments were conducted: Loteprednol etabonate (LE) and betamethasone valerate (BMV) were formulated by Otsuka Pharmaceuticals at a concentation of 0.1% in a white petrolatum base containing 5% propylene carbonate. All other test materials were steroidal anti-inflammatory compounds [Locoid® or hydrocortisone 17-butyrate (HCB) and Rinderon® or betamethasone 17-valerate (BMV-R) or white petrolatum vehicle as a control] which were commercially available in Japan at the time of testing. Sprague-Dawley rats were used in this study. All animals were from the animal research facilities of Otsuka Pharmaceutical Co. Ltd., Tokushima, Japan and all animal care and housing were according to their standard procedures. Groups of male rats (Sprague Dawley) weighing about 200-240 g were shaved on the dorsal surface. Loteprednol etabonate and betamethasone 17-valerate were administered as 0.1% ointments using white petrolatum base containing 5% propylene carbonate (PC). In separate groups, 0.12% betamethasone 17-valerate (Rinderon®), 0.1% hydrocortisone 17-butyrate (Locoid®) were administered as comparators. White petrolatum base (+5% PC) was administered to control animals. Two schedules of dosing were used: 200 mg/rat for 14 days (n=5) or 400 mg/rat for 7 days (n=7). At the end of these periods, rats were sacrificed. The thickness of a 1 cm^2 section of skin from the treated area was measured. The thymus was removed and weighed.

[2] = clinical trials, compared to prednisolone; cited from earlier work
[3] = tested on: hairless mice; experiment: Multi-week topical (photocarcinogenicity) study of loteprednol etabonate cream in hairless mice, with or without simulated sunlight; skinfold thickness; assay type: in vivo, mouse
Experimental: To investigate photocarcinogenicity, a multi-week study of loteprednol etabonate cream in hairless mice, with or without simulated sunlight, was undertaken. […] Because effects on skin atrophy were also recorded, however, and because a period of 4 weeks is the maximum recommended treatment period for eyelid dermatitis, results for the first 4 weeks of the study are given below. Mice were treated with the cream formulation once daily, five days per week. In the portion of the test summarized below, the cream contained LE in amounts of 0, 0.25% by weight and 0.5% by weight. (Higher concentrations were tested but results are not given here). Week 0 was baseline. After 4 weeks, skin thickness measurements were taken using a caliper. The cream also contained glycerin 99% USP, benzyl alcohol NF, purified water USP, carbomer 940 NF (Carbopol 980), glyceryl stearate/PEG 100 stearate, trolamine 99F, cetyl alcohol NF, stearyl alcohol NF, white petrolatum USP, light mineral oil NF and dimethicone (50 cst).

[4] = Stability of LE in aqueous suspension with or without Δ^1-cortienic acid at room temperature (HPLC); assay type: physicochemical; details: for k: 421 days
Experimental: To investigate the effect of Δ^1-cortienic acid (Δ^1-CA) on the stability of loteprednol etabonate (LE), the following experiments were conducted at room temperature (22.5° C.):
Inactives: Δ^1-CA, 0.1% (2.897 mM) & 0.2% (5.795 mM); Glycerin, Povidone, Tyloxapol, Edetate Disodium Dihydrate, Purified Water.
Preservative added: Benzalkonium Chloride 0.01%
• 1) To the mixture of 9.32 g glycerin (USP, 99.7%), 7.2 g Povidone (USP, 90000), 1.2 g Tyloxapol (USP), 0.08 g benzalkonium chloride (USP, […] of 50% solution), and 0.04 g Edetate Disodium Dihydrate (USP), 400 ml Purified Water (USP) was added. 2) The mixture was sonicated for 20 minutes to make a homogenous solution, and its pH was measured. 3) To 150 ml of each solution was added 0.15 g or 0.3 g of loteprednol etabonate (micronized), and the mixture was sonicated for 30 minutes to obtain two LE-only suspensions at 0.1% & 0.2%, respectively. 4) From each LE-only suspension (0.1 & 0.2%), 75 ml was taken and combined with micronized Δ^1-CA (0.075 & 0.15 g). 5) All four suspensions were mixed and sonicated again for another 30 minutes, and the pH of each was measured (Blank vehicle pH 3.4; LE only suspensions, pH 3.5; LE+Δ^1-CA suspensions, pH 3.3). 6) Each of the four suspensions was separated/pipetted (1 ml) into 8 ml amber vials (1 ml/vial) and the vials were sealed with caps and parafilm. 7) Half of each formula 1 ml/vial samples were loaded on a shaker for continuous shaking (170 times/min), and the other half of the samples were only shaken vigorously by hand each time before HPLC sample preparation. 8) For periodical samplings, one sample of every set of suspensions was taken and analyzed by HPLC. 9) All procedures were conducted at 22.5° C. Sample Preparation
The change of LE and its degradation products AE (acid etabonate) and Δ^1-CA in the suspensions was measured periodically. A vial of each series of suspensions was randomly taken, mixed/washed with 50% acetonitrile, and transferred to a 10 ml cylinder to make a final volume of 10 ml solution (about 100 μg/ml for LE 0.1% or 200 μg/ml for LE 0.2% samples).
A HPLC system operating at ambient temperature was used to quantitative determination of LE, AE and Δ^1-CA. Phenonemax Luna C18 (5μ, 150×4.6 mm) was connected to a Spectra-Physics component system consisting of a SP 8810 precision isocratic pump, a Rheodyne 7125 injector (injection volume 20 μl), a SP 8450 UV/VIS variable wavelength detector (operated at 254 nm), and a SP 4290 integrator. At a flow rate of 1 ml/min, a mobile phase consisting of acetonitrile, acetic acid, and water in a volume ratio of 60:0.2:40 eluted LE, AE and Δ^1-CA at 7.5, 3.2, and 2.2 min, respectively. Each sample was run in triplicate. The change in peak-area was recorded, and the percent ratio of each compound (LE, AE, and Δ^1-CA) toward total (LE+AE+Δ^1-CA) in peak-area was used to evaluate the disappearance of LE as well as the appearance of AE and Δ^1-CA. Since Δ^1-CA was used as an additive for LE+Δ^1-CA samples, the appearance of Δ^1-CA (from AE) was in the error range of these samples, and furthermore, in the LE-only samples, Δ^1-CA was observed from zero-time at 0.36±0.19% of total (LE+AE+Δ^1-CA), and less than, or about 0.5% thereafter in all LE-only samples; the number 0.5% was used as the amount of Δ^1-CA for all of LE+Δ^1-CA samples.

[5] = anti-inflammatory activity; cited from earlier work
[6] = tested on: patient with necrobiosis; experiment: Topical treatment of a patient with necrobiosis; assay type: in vivo, human; details: LE as 0.5% cream of Example 2
Excerpt: Further confirmation has been found in a patient with necrobiosis.

[7] = regimens of Table 2, listed as loteprednol etabonate
[8] = LE 0.1% + Δ^1-CA 0.1% suspension, 22.5° C.
[9] = LE 0.1% suspension, no Δ^1-CA, 22.5° C.
[10] = LE 0.2% + Δ^1-CA 0.2% suspension, 22.5° C.
[11] = LE 0.2% suspension, no Δ^1-CA, 22.5° C.

Row | SMILES | PERCENT DECREASE IN SKIN THICKNESS ([1]; 200 mg/day - 14 d) | PERCENT DECREASE IN THYMUS WEIGHT ([1]; 200 mg/day - 14 d) | PERCENT DECREASE IN SKIN THICKNESS ([1]; 400 mg/day - 7 d) | PERCENT DECREASE IN THYMUS WEIGHT ([1]; 400 mg/day - 7 d) | effect on thymus weight (in words) ([1]; regimens of Table 2) | skin atrophy (in words) ([1]; regimens of Table 2) | effect on inflammation / necrobiosis [6] | skin atrophy (skin thinning) [6] | further results
1 | CCOC(=O)O[C@]1(C(=O)OCCl)CC[C@H]2[C@@H]3CCC4=CC(=O)C=C[C@]4(C)[C@H]3[C@@H](O)C[C@@]21C [LE, chloromethyl 17α-ethoxycarbonyloxy-11β-hydroxyandrosta-1,4-dien-3-one-17β-carboxylate] | 6.5% | 12.8% | 10.3% | −2.5% | minimal effects on skin atrophy and thymus weight | minimal effects on skin atrophy and thymus weight | effective in treating the necrobiosis by lessening inflammation | did not cause skin atrophy | skin atrophy (in words) ([1]; regimens of Table 2, listed as Loteprednol etabonate): did not cause a statistically significant decrease in skin thickness; effect on thymus weight (in words) [1, 7]: did not effect thymus weight significantly; skin atrophy (in words) [1, 7]: less skin atrophy; cataracts [2]: did not elevate intraocular pressure or cause cataracts; elevation of intraocular pressure [2]: did not elevate intraocular pressure; skin atrophy (in words) ([3]; 1.5% and 4.5% by weight of LE and/or study extended to week 8 and week 13): more skin atrophy was seen; effect on skin thickness (in words) ([3]; LE at 0.25% and 0.5%, application for four weeks): no or minimal deleterious effect on skin thickness; t95% [4, 8]: 3.66 year; k [4, 8]: 3.84 day^−1 × 10^−5; t95% [4, 9]: 2.10 year; k [4, 9]: 6.69 day^−1 × 10^−5; t95% [4, 10]: 6.12 year; k [4, 10]: 2.30 day^−1 × 10^−5; t95% [4, 11]: 3.21 year; k [4, 11]: 4.38 day^−1 × 10^−5; stabilization of LE by increase in concentration ([4]; concentration from 0.1% to 0.2%, in either LE-only or LE+Δ^1-CA suspension): more than 1.5 times; stabilization of LE by Δ^1-cortienic acid relative to LE in the absence of the enhancer (increase of half-life) ([4]; same concentration of Δ^1-CA added to LE suspension): between one and one-half and two times; also recorded: almost two times; activity relative to hydrocortisone (HC) [5]: approximately 20 times
2 | CCCCC(=O)O[C@]1(C(=O)CO)[C@@H](C)C[C@H]2[C@@H]3CCC4=CC(=O)C=C[C@]4(C)[C@@]3(F)[C@@H](O)C[C@@]21C [BMV, betamethasone 17-valerate] | 12.8* PERCENT | 70.1** PERCENT | – | – | significant decreases in thymus weight | caused skin atrophy | successful in lessening inflammation | thinned the skin | effect on thymus weight (in words) ([1]; regimens of Table 2, listed as Betamethasone valerate): most significant decreases in thymus weight
3 | CCCC(=O)O[C@]1(C(=O)CO)CC[C@H]2[C@@H]3CCC4=CC(=O)CC[C@]4(C)[C@H]3[C@@H](O)C[C@@]21C [HCB, hydrocortisone 17-butyrate] | 17.9* PERCENT | 29.5* PERCENT | 12.8* PERCENT | 36.0** PERCENT | significant decreases in thymus weight | most marked; also recorded: caused skin atrophy | – | – | –
4 | CCOC(=O)OC1(C(=O)O)CC[C@H]2[C@@H]3CCC4=CC(=O)C=C[C@]4(C)[C@H]3C(O)C[C@@]21C (stereo partly shown) [AE] | – | – | – | – | – | – | – | – | stability of degradation product AE in the suspension ([4]; aqueous LE suspensions, 22.5° C.): stable
